In patent publication US8975406B2, “Compound useful for the treatment of degenerative and inflammatory diseases” (Galapagos N.V., priority 2011, dated 2015):

How the values were obtained:
Recombinant human JAK1 = target: T1, Recombinant human JAK1 (Homo sapiens, UniProt P23458); assay: JAK1 Ulight-JAK1 peptide assay; type: biochemical; details: Ulight-JAK1(tyr1023) peptide, 7 μM ATP
T1 construct: catalytic domain (amino acids 866-1154; catalog number PV4774); purchased Invitrogen PV4774
Method: Recombinant human JAK1 (catalytic domain, amino acids 866-1154; catalog number PV4774) was purchased from Invitrogen. 1 ng of JAK1 was incubated with 20 nM Ulight-JAK1(tyr1023) peptide (Perkin Elmer catalog number TRF0121) in kinase reaction buffer (25 mM MOPS pH6.8, 0.01% Brij-35, 5 mM MgCl2, 2 mM DTT, 7 μM ATP) with or without 4 μL containing test compound or vehicle (DMSO, 1% final concentration), in a total volume of 20 μL, in a white 384 Opti plate (Perkin Elmer, catalog number 6007290). After 60 min at room temperature, reactions were stopped by adding 20 μL/well of detection mixture (1× detection buffer (Perkin Elmer, catalog number CR97-100C), 0.5 nM Europium-anti-phosphotyrosine (PT66) (Perkin Elmer, catalog number AD0068), 10 mM EDTA). Readout is performed using the Envision with excitation at 320 nm and measuring emission at 615 nm (Perkin Elmer). Kinase activity was calculated by subtracting relative fluorescence units (RFU) obtained in the presence of a positive control inhibitor (10 μM staurosporine) from RFU obtained in the presence of vehicle. The ability of a test compound to inhibit this activity was determined as: Percentage inhibition=((RFU determined for sample with test compound present−RFU determined for sample with positive control inhibitor)divided by(RFU determined in the presence of vehicle−RFU determined for sample with positive control inhibitor))*100.
(§1) Dose dilution series were prepared for the compounds enabling the testing of dose-response effects in the JAK1 assay and the calculation of the IC50 for the compound. Each compound is routinely tested at concentration of 20 μM followed by a ⅕ serial dilution, 10 points in a final concentration of 1% DMSO. When potency of compound series increases, more dilutions are prepared and/or the top concentration are lowered (e.g. 5 μM, 1 μM). The data are expressed as the average IC50 from the assays±standard error of the mean.

Recombinant human JAK2 = target: T2, Recombinant human JAK2 (Homo sapiens, UniProt O60674); assay: JAK2 Ulight-JAK1 peptide assay; type: biochemical; details: Ulight-JAK1(tyr1023) peptide, 7.5 μM ATP
T2 construct: catalytic domain (amino acids 808-1132; catalog number PV4210); GST; purchased Invitrogen PV4210
T2 sequence (O60674 808-1132): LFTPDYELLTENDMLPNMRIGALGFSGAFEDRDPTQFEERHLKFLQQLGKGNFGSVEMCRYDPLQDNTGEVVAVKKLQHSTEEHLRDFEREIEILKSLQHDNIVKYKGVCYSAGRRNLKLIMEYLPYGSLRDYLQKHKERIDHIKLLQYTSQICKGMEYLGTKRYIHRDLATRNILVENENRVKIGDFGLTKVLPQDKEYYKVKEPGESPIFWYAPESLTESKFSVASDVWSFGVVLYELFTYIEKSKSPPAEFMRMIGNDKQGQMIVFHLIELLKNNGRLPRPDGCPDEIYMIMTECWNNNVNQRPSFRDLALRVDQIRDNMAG
Method: Recombinant human JAK2 (catalytic domain, amino acids […]; catalog number PV4210) was purchased from Invitrogen. 0.0125 mU of JAK2 was incubated with 25 nM Ulight-JAK1(tyr1023) peptide (Perkin Elmer catalog number TRF0121) in kinase reaction buffer (25 mM HEPES pH7.0, 0.01% Triton X-100, 7.5 mM MgCl2, 2 mM DTT, 7.5 μM ATP) with or without 4 μL containing test compound or vehicle (DMSO, 1% final concentration), in a total volume of 20 μL, in a white 384 Opti plate (Perkin Elmer, catalog number 6007290). After 60 min at room temperature, reactions were stopped by adding 20 μL/well of detection mixture (1× detection buffer (Perkin Elmer, catalog number CR97-100C), 0.5 nM Europium-anti-phosphotyrosine (PT66) (Perkin Elmer, catalog number AD0068), 10 mM EDTA). Readout is performed using the Envision with excitation at 320 nm and measuring emission at 615 nm (Perkin Elmer). Kinase activity was calculated by subtracting relative fluorescence units (RFU) obtained in the presence of a positive control inhibitor (10 μM staurosporine) from RFU obtained in the presence of vehicle. The ability of a test compound to inhibit this activity was determined as: Percentage inhibition=((RFU determined for sample with test compound present−RFU determined for sample with positive control inhibitor)divided by(RFU determined in the presence of vehicle−RFU determined for sample with positive control inhibitor))*100.
as §1, with “each compound” for “the compounds”, “JAK2” for “JAK1”

[1] = test system: JAK-STAT signalling in HeLa cells; assay: JAK-STAT signalling assay (pSTAT1(2)-luciferase reporter, OSM-triggered HeLa cells); type: cell-based; details: human OSM 33 ng/mL
Method: HeLa cells were maintained in Dulbecco's Modified Eagle's Medium (DMEM) containing 10% heat inactivated fetal calf serum, 100 U/mL penicillin and 100 μg/mL streptomycin. HeLa cells were used at 70% confluence for transfection. 20,000 cells in 87 μL cell culture medium were transiently transfected with 40 ng pSTAT1(2)-luciferase reporter (Panomics), 8 ng of LacZ reporter as internal control reporter and 52 ng of pBSK using 0.32 μL Jet-PEI (Polyplus) as transfection reagent per well in 96-well plate format. After overnight incubation at 37° C., 5% CO2, transfection medium was removed. 81 μL of DMEM+1.5% heat inactivated fetal calf serum was added. 9 μL compound at 10× concentration was added for 60 min and then 10 μL of human OSM (Peprotech) at 33 ng/mL final concentration.
All compounds were tested in duplicate starting from 20 μM followed by a ⅓ serial dilution, 8 doses in total (20 μM-6.6 μM-2.2 μM-740 nM-250 nM-82 nM-27 nM-9 nM) in a final concentration of 0.2% DMSO.
After overnight incubation at 37° C., 5% CO2 cells were lysed by adding 100 μL lysis buffer/well (PBS, 0.9 mM CaCl2, 0.5 mM MgCl2, 10% Trehalose, 0.05% Tergitol NP9, 0.3% BSA).
40 μL of cell lysate was used to read β-galactosidase activity by adding 180 μL β-Gal solution (30 μl ONPG 4 mg/mL+150 μL β-Galactosidase buffer (0.06 M Na2HPO4, 0.04 M NaH2PO4, 1 mM MgCl2)) for 20 min. The reaction was stopped by addition of 50 μL Na2CO3 1 M. Absorbance was read at 405 nm.
Luciferase activity was measured using 40 μL cell lysate plus 40 μL of Steadylite® as described by the manufacturer (Perkin Elmer), on the Envision (Perkin Elmer).
Omitting OSM was used as a positive control (100% inhibition). As negative control 0.5% DMSO (0% inhibition) was used. The positive and negative controls were used to calculate z′ and ‘percent inhibition’ (PIN) values. Percentage inhibition=((fluorescence determined in the presence of vehicle−fluorescence determined for sample with test compound present)divided by(fluorescence determined in the presence of vehicle−fluorescence determined for sample without trigger))*100.
PIN values were plotted for compounds tested in dose-response and EC50 values were derived.

T1 sequence (P23458 866-1154): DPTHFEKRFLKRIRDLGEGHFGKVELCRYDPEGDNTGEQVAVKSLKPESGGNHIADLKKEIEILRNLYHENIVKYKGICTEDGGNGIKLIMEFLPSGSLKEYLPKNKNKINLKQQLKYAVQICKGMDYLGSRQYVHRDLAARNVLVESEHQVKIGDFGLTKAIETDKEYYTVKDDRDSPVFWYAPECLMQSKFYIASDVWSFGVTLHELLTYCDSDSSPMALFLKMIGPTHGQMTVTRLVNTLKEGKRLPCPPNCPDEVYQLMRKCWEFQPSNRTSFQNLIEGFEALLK

| SMILES | IC50 (Recombinant human JAK1) [nM] | IC50 (Recombinant human JAK2) [nM] | IC50 [1] [nM] |
| --- | --- | --- | --- |
| COc1ccc(-c2cccn3nc(NC(=O)C4CC4)cc23)cc1 [Compound 1, N-(4-(4-methoxyphenyl)pyrazolo[1,5-a]pyridin-2-yl)cyclopropanecarboxamide] | 0.01 to 100 | 0.01 to 100 | > 1000 |
| O=C(Nc1cc2c(-c3ccc(OCc4ccccc4)cc3)cccn2n1)C1CC1 [Compound 2, N-(4-(4-(benzyloxy)phenyl)pyrazolo[1,5-a]pyridin-2-yl)cyclopropanecarboxamide] | 101 to 500 | 101 to 500 | – |
| O=C(Nc1cc2c(-c3ccc4c(ccn4Cc4ccccc4)c3)cccn2n1)C1CC1 [Compound 3, N-(4-(1-benzyl-1H-indol-5-yl)pyrazolo[1,5-a]pyridin-2-yl)cyclopropanecarboxamide] | > 1000 | 101 to 500 | > 1000 |
| O=C(Nc1cc2c(-c3ccc4[nH]ccc4c3)cccn2n1)C1CC1 [Compound 4, N-(4-(1H-indol-5-yl)pyrazolo[1,5-a]pyridin-2-yl)cyclopropanecarboxamide] | 101 to 500 | 0.01 to 100 | > 1000 |
| O=C(NCCc1ccccc1)c1ccc(-c2cccn3nc(NC(=O)C4CC4)cc23)cc1 [Compound 5, 4-(2-(cyclopropanecarboxamido)pyrazolo[1,5-a]pyridin-4-yl)-N-phenethylbenzamide] | 0.01 to 100 | 0.01 to 100 | 101 to 500 |
| O=C(NCCOc1ccccc1)c1ccc(-c2cccn3nc(NC(=O)C4CC4)cc23)cc1 [Compound 6, 4-(2-(cyclopropanecarboxamido)pyrazolo[1,5-a]pyridin-4-yl)-N-(2-phenoxyethyl)benzamide] | 0.01 to 100 | 0.01 to 100 | 101 to 500 |
| COc1ccc(-c2cccn3nc(NC(=O)C4CC4)c(-c4ccccc4)c23)cc1 [Compound 7, N-(4-(4-methoxyphenyl)-3-phenylpyrazolo[1,5-a]pyridin-2-yl)cyclopropanecarboxamide] | > 1000 | > 1000 | – |
| O=C(Nc1cc2c(-c3ccc(OCc4cccnc4)cc3)cccn2n1)C1CC1 [Compound 8, N-(4-(4-(pyridin-3-ylmethoxy)phenyl)pyrazolo[1,5-a]pyridin-2-yl)cyclopropanecarboxamide] | – | – | > 1000 |
| N#Cc1ccc(COc2ccc(-c3cccn4nc(NC(=O)C5CC5)cc34)cc2)cn1 [Compound 9, N-(4-(4-((6-cyanopyridin-3-yl)methoxy)phenyl)pyrazolo[1,5-a]pyridin-2-yl)cyclopropanecarboxamide] | 0.01 to 100 | 0.01 to 100 | 101 to 500 |
| O=C(Nc1cc2c(-c3ccc(CN4CCS(=O)(=O)CC4)cc3)cccn2n1)C1CC1 [Compound 10, Cyclopropanecarboxylic acid {4-[4-(1,1-dioxo-thiomorpholin-4-ylmethyl)-phenyl]-pyrazolo[1,5-a]pyridin-2-yl}-amide] | 0.01 to 100 | 0.01 to 100 | 101 to 500 |
| O=C(Nc1nn2cccc(-c3ccc(CN4CCS(=O)(=O)CC4)cc3)c2c1F)C1CC1 [Compound 11, Cyclopropanecarboxylic acid {4-[4-(1,1-dioxo-thiomorpholin-4-ylmethyl)-phenyl]-3-fluoro-pyrazolo[1,5-a]pyridin-2-yl}-amide] | 0.01 to 100 | 0.01 to 100 | 501 to 1000 |
| O=C(Nc1nn2cccc(-c3ccc(CN4CCS(=O)(=O)CC4)cc3)c2c1Br)C1CC1 [Compound 12, Cyclopropanecarboxylic acid {4-[4-(1,1-dioxo-thiomorpholin-4-ylmethyl)-phenyl]-3-bromo-pyrazolo[1,5-a]pyridin-2-yl}-amide] | 0.01 to 100 | 0.01 to 100 | > 1000 |
| O=C(Nc1nn2cccc(-c3ccc(CN4CCS(=O)(=O)CC4)cc3)c2c1Cl)C1CC1 [Compound 13, Cyclopropanecarboxylic acid {4-[4-(1,1-dioxo-thiomorpholin-4-ylmethyl)-phenyl]-3-chloro-pyrazolo[1,5-a]pyridin-2-yl}-amide] | 0.01 to 100 | 0.01 to 100 | 501 to 1000 |
| CC(=O)Nc1cc2c(-c3ccc(CN4CCN(CC(F)(F)F)CC4)c(F)c3)cccn2n1 [Compound 28, N-(4-(3-fluoro-4-((4-(2,2,2-trifluoroethyl)piperazin-1-yl)methyl)phenyl)pyrazolo[1,5-a]pyridin-2-yl)acetamide] | 0.01 to 100 | 0.01 to 100 | – |
| CC(=O)Nc1cc2c(-c3ccc(CC(=O)N4CCCCC4)cc3)cccn2n1 [Compound 35, N-(4-(4-(2-oxo-2-(piperidin-1-yl)ethyl)phenyl)pyrazolo[1,5-a]pyridin-2-yl)acetamide] | 101 to 500 | 0.01 to 100 | – |
| CC(=O)Nc1cc2c(-c3ccc(CC(=O)N4CCOCC4)cc3)cccn2n1 [Compound 36, N-(4-(4-(2-morpholino-2-oxoethyl)phenyl)pyrazolo[1,5-a]pyridin-2-yl)acetamide] | 101 to 500 | 0.01 to 100 | – |
| CC(=O)Nc1cc2c(-c3ccc(CC(=O)N4COCC4(C)C)cc3)cccn2n1 [Compound 38, N-(4-(4-(2-(4,4-dimethyloxazolidin-3-yl)-2-oxoethyl)phenyl)pyrazolo[1,5-a]pyridin-2-yl)acetamide] | 101 to 500 | 0.01 to 100 | – |
| CC(c1ccc(-c2cccn3nc(NC(=O)C4CC4)cc23)cc1)N1CCN(S(C)(=O)=O)CC1 (stereo not drawn) [Compound 43, N-(4-(4-(1-(4-(methylsulfonyl)piperazin-1-yl)ethyl)phenyl)pyrazolo[1,5-a]pyridin-2-yl)cyclopropanecarboxamide] | 0.01 to 100 | 0.01 to 100 | – |
